target: T1, partially purified rat brain farnesyl protein transferase (FPT) (Rattus norvegicus, UniProt Q02293+Q04631); assay: In vitro enzyme assay: inhibition of Ras-CVLS farnesylation by farnesyl protein transferase; assay type: biochemical
T1 construct: partially purified rat brain farnesyl protein transferase (FPT); from tissue; host or cells: rat brain
Method: 1. In vitro enzyme assays: FPT IC50 (inhibition of farnesyl protein transferase, in vitro enzyme assay) are determined by the methods disclosed in WO/10515 or WO 95110516.

Q: How did the IC50 turn out when COc1cc(C)cc2c1C(C1CCN(C(=O)Cc3cc[n+]([O-])cc3)CC1)c1ncc(Br)cc1CC2 (racemic) [Example 3, (+,−)-4-(3-Bromo-10-methoxy-8-methyl-6,11-dihydro-5H-benzo[5,6]cyclohepta[1,2-b]pyridin-11-yl)-1-(4-pyridinylacetyl)piperidine N1-oxide] was run?
A: Its IC50 is 3.2 nM.

Q: Which IC50 does the source give for COc1cc(C)cc2c1C(C1CCN(C(=O)Cc3cc[n+]([O-])cc3)CC1)c1ncccc1CC2 (racemic) [Example 4, (+,−)-4-(6,11-dihydro-10-methoxy-8-methyl-5H-benzo[5,6]cyclohepta[1,2-b]pyridin-11-yl)-1-(4-pyridinylacetyl)piperidine N-1 oxide] here?
A: The IC50 was 140 nM.

Q: For Cc1cc(O)c2c(c1)CCc1cc(Br)cnc1C2C1CCN(C(=O)Cc2cc[n+]([O-])cc2)CC1 (racemic) [Example 9, (+,−)-4-(3-Bromo-10-hydroxy-8-methyl-5,6-dihydro-11H-benzo[5,6]cyclohepta[1,2-b]pyridin-11-yl)-1-(4-pyridinylacetyl)piperidine N1-oxide], which IC50 is on record?
A: The IC50 was 120 nM.

Q: For COc1cc(C)cc2c1C(N1CCN(C(=O)Cc3cc[n+]([O-])cc3)CC1)c1ncc(Br)cc1CC2 (racemic) [Example 10, (+,−)-1-(3-Bromo-10-methoxy-8-methyl-6,11-dihydro-5H-benzo[5,6]cyclohepta[1,2-b]pyridin-1 1-yl)-4-(4-pyridinylacetyl)piperazine N4-oxide], which IC50 is on record?
A: The IC50 was 16 nM.

Q: Cc1cccc2c1CCc1cc(Br)cnc1C2N1CCN(C(=O)Cc2cc[n+]([O-])cc2)CC1 (racemic) [Example 14, (+,−)-1-(3-Bromo-7-methyl-6,11-dihydro-5H-benzo[5,6]cyclohepta[1,2-b]pyridin-11-yl)-4-(4-pyridinylacetyl)piperazine N4-oxide] was tested. Which IC50 did it give?
A: The IC50 was 110 nM.

Q: How did the IC50 turn out when Cc1ccc(C)c2c1CCc1cc(Br)cnc1C2N1CCN(C(=O)Cc2cc[n+]([O-])cc2)CC1 (racemic) [Example 15, (+,−)-1-(3-Bromo-7,10-dimethyl-6,11-dihydro-5H-benzo[5,6]cyclohepta[1,2-b]pyridin-11-yl)-4-(4-pyridinylacetyl)piperazine N4-oxide] was run?
A: Its IC50 is 130 nM.

Q: For Cc1ccc2c(c1)CCc1cc(Br)cnc1C2N1CCN(C(=O)Cc2cc[n+]([O-])cc2)CC1 (racemic) [Example 16, (+,−)-1-(3-Bromo-8-methyl-6,11-dihydro-5H-benzo[5,6]cyclohepta[1,2-b]pyridin-11-yl)-4-(4-pyridinylacetyl)piperazine N4-oxide], which IC50 is on record?
A: The IC50 was 64 nM.

Q: How did the IC50 turn out when COc1ccc2c(c1)CCc1cc(Br)cnc1C2N1CCN(C(=O)Cc2cc[n+]([O-])cc2)CC1 (racemic) [Example 17, (+,−)-1-(3-Bromo-6,11-dihydro-8-methoxy-5H-benzo[5,6]cyclohepta[1 ,2-b]pyridin-11-yl)-4-(4-pyridinylacetyl)piperazine N4-oxide] was run?
A: The IC50 was 290 nM.

Q: How did the IC50 turn out when Cc1cc(C)c2c(c1)CCc1cc(Br)cnc1C2N1CCN(C(=O)Cc2cc[n+]([O-])cc2)CC1 (racemic) [Example 18, (+,−)-1-(3-Bromo-6,11-dihydro-8,10-dimethyl-5H-benzo[5,6]cyclohepta[1,2-b]pyridin-11-yl)-4-(4-pyridinylacetyl)piperazine N4-oxide] was run?
A: Its IC50 is 43 nM.

Q: For Cc1cc(Br)c2c(c1)CCc1cc(Br)cnc1C2N1CCN(C(=O)Cc2cc[n+]([O-])cc2)CC1 (racemic) [Example 21], which IC50 is on record?
A: The IC50 was 4.8 nM.

Q: For Cc1cc(Br)cc2c1C(N1CCN(C(=O)Cc3cc[n+]([O-])cc3)CC1)c1ncc(Br)cc1CC2 (racemic) [Example 22, (+,−)-1-(3,8-Dibromo-6,11-dihydro-10-methyl-5H-benzo[5,6]cyclohepta[1,2-b]pyridin-11-yl)-4-(4-pyridinylacetyl)piperazine N4-oxide], which IC50 is on record?
A: The IC50 was 9.9 nM.

Q: For COc1cc(C)cc2c1C(C1CCN(C(=O)Cc3cc[n+]([O-])cc3)CC1)c1ncc(C(C)(C)O)cc1CC2 (racemic) [Example 23, (+,−)-4-[6,11-dihydro-3-(1-hydroxy-1-methylethyl)-10-methoxy-8-methyl-5H-benzo[5,6]cyclohepta[1,2-b]pyridin-11-yl]-1-(4-pyridinylacetyl)piperidine N1-oxide], which IC50 is on record?
A: The IC50 was over 200 nM.

Q: For COc1cc(C)c2c(c1)CCc1cc(Br)cnc1C2N1CCN(C(=O)Cc2cc[n+]([O-])cc2)CC1 (racemic) [Example 26, (+,−)-1-(3-Bromo-8-methoxy-10-methyl-6,11-dihydro-5H-benzo[5,6]cyclohepta[1 ,2-b]pyridin-11-yl)-4-(4-pyridinylacetyl)piperzazine N4-oxide], which IC50 is on record?
A: Its IC50 is 58 nM.

Q: COc1cc(C)cc2c1C(C1CCN(C(=O)Cc3cc[n+]([O-])cc3)CC1)c1ncc(C3CC3)cc1CC2 (racemic) [Example 32] was tested. Which IC50 did it give?
A: The IC50 was over 200 nM.

Q: With COc1cc(C)cc2c1C(N1CCN(C(=O)Cc3cc[n+]([O-])cc3)CC1)c1ncc(Br)cc1CC2 (single isomer, unassigned; (+)) [Example 20, (+)-1-(3-Bromo-10-methoxy-8-methyl-6,11-dihydro-5H-benzo[5,6]cyclohepta[1,2-b]pyridin-11-yl)-4-(4-pyridinylacetyl)piperazine N4-oxide, (+) enantiomer] as the compound, how does the IC50 read?
A: Its IC50 is over 180 nM.

Q: For COc1cc(C)cc2c1C(C1CCN(C(=O)Cc3cc[n+]([O-])cc3)CC1)c1ncc(Br)cc1CC2 (single isomer, unassigned; (+)) [Example 24, (+)-4-(3-Bromo-10-methoxy-8-methyl-6,11-dihydro-5H-benzo[5,6]cyclohepta[1,2-b]pyridin-11-yl)-4-(4-pyridinylacetyl)piperidine N1-oxide, (+) enantiomer], which IC50 is on record?
A: The IC50 was 3.6 nM.

Q: Cc1cc(Br)c2c(c1)CCc1cc(Br)cnc1C2C1CCN(C(=O)Cc2cc[n+]([O-])cc2)CC1 (single isomer, unassigned; (+)) [Example 33, (+) 4-(3-Bromo-6,11-dihydro-10-bromo-8-methyl-5H-benzo[5,6]cyclohepta[1,2-b]pyridin-11-yl)-1-(4-pyridinylacetyl)piperidine N1 -Oxide] was tested. Which IC50 did it give?
A: Its IC50 is 1.2 nM.

Q: For Cc1cc(Br)c2c(c1)CCc1cc(Br)cnc1C2(O)C1CCN(C(=O)Cc2cc[n+]([O-])cc2)CC1 (single isomer, unassigned; (+)) [Example 35, (+) 4-(3-Bromo-6,11-dihydro-11-hydroxy-10-bromo-8-methyl-5H-benzo[5,6]cyclohepta[1,2-b]pyridin-11-yl)-1-(4-pyridinylacetyl)piperidine N1-Oxide], which IC50 is on record?
A: Its IC50 is 10.8 nM.

Q: How did the IC50 turn out when COc1cc(C)cc2c1C(N1CCN(C(=O)Cc3cc[n+]([O-])cc3)CC1)c1ncc(Br)cc1CC2 (single isomer, unassigned; (-)) [Example 19, (−)-1-(3-Bromo-10-methoxy-8-methyl-6,11-dihydro-5H-benzo[5,6]cyclohepta[1,2-b]pyridin-11-yl)-4-(4-pyridinylacetyl)piperazine N4-oxide, (−) enantiomer] was run?
A: Its IC50 is 4.2 nM.

Q: COc1cc(C)cc2c1C(C1CCN(C(=O)Cc3cc[n+]([O-])cc3)CC1)c1ncc(Br)cc1CC2 (single isomer, unassigned; (-)) [Example 25, (−)-4-(3-Bromo-10-methoxy-8-methyl-6,11-dihydro-5H-benzo[5,6]cyclohepta[1,2-b]pyridin-11-yl)-4-(4-pyridinylacetyl)piperidine N1-oxide, (−) enantiomer] was tested. Which IC50 did it give?
A: The IC50 was 220 nM.
